Like-named read-outs stand apart in the source and are kept apart here.
Key:
MDA-MB-231 = test: Cell proliferation inhibition assay (MTT); type: cell-based, human; conditions: Homo sapiens, read-out: Proliferative inhibitory activity MDA-MB-231 (IC50 class)
MDA-MB-435 = test: Cell proliferation inhibition assay (MTT); type: cell-based, human; conditions: Homo sapiens, read-out: Proliferative inhibitory activity MDA-MB-435 (IC50 class)
c-Src(1-530) = c-Src(1-530) (Homo sapiens (Human), UniProt P12931); test: Kinase inhibition assay (KinaseProfiler, 33P-ATP); conditions: c-Src(1-530); ATP at Km
Sequence of c-Src(1-530) (P12931 whole entry, looked up): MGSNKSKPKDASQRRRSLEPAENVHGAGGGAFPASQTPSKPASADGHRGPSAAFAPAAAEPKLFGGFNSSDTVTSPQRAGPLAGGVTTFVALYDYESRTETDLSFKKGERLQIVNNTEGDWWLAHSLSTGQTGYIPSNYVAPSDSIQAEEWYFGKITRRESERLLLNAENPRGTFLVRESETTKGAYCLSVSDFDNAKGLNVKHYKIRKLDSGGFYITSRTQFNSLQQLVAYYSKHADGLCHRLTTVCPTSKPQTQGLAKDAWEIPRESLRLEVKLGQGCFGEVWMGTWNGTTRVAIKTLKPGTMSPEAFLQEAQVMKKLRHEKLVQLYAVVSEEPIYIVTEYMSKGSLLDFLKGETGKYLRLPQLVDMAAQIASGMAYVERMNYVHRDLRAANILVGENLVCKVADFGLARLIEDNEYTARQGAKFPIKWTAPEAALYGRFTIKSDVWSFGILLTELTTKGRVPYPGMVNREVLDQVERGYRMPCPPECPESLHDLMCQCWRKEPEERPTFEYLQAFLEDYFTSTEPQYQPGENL

Abl(T315I) = Abl(T315I) (Homo sapiens (Human), UniProt P00519, T315I); test: Kinase inhibition assay (KinaseProfiler, 33P-ATP); type: biochemical; conditions: Abl(T315I)(h); compound at 10 μM; read-out: The percentage of the remaining active protein
Yes = Yes (Homo sapiens (Human), UniProt P07947); test: Kinase inhibition assay (KinaseProfiler, 33P-ATP); type: biochemical; conditions: for IC50: Yes, ATP at Km
Sequence of Yes (P07947 whole entry): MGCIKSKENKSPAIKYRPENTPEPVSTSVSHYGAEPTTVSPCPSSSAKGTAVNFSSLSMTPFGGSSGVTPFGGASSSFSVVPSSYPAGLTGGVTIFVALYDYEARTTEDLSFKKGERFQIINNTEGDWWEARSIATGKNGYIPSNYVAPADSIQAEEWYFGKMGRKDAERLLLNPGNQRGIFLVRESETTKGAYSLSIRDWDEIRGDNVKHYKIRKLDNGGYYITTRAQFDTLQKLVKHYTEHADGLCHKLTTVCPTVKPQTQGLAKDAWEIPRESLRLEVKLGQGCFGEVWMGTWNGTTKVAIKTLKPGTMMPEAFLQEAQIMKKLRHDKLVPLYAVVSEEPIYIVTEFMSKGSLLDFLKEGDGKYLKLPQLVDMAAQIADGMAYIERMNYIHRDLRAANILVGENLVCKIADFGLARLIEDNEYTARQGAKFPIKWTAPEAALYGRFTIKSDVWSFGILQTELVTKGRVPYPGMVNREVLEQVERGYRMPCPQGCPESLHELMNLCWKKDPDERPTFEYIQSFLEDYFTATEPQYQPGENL

Fyn = Fyn (Homo sapiens (Human), UniProt P06241); test: Kinase inhibition assay (KinaseProfiler, 33P-ATP); type: biochemical; conditions: Fyn(h); compound at 10 μM; read-out: The percentage of the remaining active protein
Sequence of Fyn (P06241 whole entry): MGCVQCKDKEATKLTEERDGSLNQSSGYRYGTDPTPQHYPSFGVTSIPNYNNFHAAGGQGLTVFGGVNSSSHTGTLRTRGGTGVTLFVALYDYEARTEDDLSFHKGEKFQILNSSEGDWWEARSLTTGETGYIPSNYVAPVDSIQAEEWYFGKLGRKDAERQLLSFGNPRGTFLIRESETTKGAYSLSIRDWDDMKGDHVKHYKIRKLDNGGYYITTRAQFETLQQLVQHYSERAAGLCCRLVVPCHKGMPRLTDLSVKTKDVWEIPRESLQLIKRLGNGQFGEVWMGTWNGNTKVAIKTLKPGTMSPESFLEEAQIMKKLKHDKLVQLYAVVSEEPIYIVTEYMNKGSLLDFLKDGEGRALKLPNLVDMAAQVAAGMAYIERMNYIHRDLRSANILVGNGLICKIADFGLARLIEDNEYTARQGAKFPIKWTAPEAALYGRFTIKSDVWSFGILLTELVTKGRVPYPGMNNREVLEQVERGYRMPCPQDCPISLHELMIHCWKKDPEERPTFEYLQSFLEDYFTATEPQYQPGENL

FGFR1 = FGFR1 (Homo sapiens (Human), UniProt P11362); test: Kinase inhibition assay (KinaseProfiler, 33P-ATP); type: biochemical; conditions: FGFR1(h); compound at 10 μM; read-out: The percentage of the remaining active protein
Sequence of FGFR1 (P11362 22-822): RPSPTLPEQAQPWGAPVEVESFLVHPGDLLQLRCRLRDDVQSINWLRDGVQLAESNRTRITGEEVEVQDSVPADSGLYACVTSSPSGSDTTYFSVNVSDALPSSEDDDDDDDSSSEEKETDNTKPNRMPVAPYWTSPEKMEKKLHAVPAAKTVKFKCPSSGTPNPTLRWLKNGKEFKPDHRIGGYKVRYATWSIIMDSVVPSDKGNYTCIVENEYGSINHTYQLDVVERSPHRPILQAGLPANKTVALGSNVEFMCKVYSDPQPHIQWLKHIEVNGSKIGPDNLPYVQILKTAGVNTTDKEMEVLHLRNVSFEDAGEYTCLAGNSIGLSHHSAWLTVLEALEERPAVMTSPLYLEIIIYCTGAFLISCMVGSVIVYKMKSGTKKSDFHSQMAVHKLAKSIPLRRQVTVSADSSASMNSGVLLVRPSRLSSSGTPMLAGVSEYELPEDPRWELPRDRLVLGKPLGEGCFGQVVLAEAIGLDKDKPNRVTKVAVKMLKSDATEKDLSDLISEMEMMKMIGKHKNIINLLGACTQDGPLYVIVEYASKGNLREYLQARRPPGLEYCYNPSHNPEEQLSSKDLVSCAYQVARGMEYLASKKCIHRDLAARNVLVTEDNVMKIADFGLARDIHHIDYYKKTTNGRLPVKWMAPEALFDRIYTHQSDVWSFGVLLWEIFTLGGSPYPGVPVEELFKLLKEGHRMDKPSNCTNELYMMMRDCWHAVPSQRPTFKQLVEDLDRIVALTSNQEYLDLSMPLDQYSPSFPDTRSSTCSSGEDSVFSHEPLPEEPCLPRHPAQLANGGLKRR

EphB4 = EphB4 (Homo sapiens (Human), UniProt P54760); test: Kinase inhibition assay (KinaseProfiler, 33P-ATP); type: biochemical; conditions: for remaining activity at 10 µM: EphB4(h), compound at 10 μM, read-out: The percentage of the remaining active protein
Sequence of EphB4 (P54760 16-987): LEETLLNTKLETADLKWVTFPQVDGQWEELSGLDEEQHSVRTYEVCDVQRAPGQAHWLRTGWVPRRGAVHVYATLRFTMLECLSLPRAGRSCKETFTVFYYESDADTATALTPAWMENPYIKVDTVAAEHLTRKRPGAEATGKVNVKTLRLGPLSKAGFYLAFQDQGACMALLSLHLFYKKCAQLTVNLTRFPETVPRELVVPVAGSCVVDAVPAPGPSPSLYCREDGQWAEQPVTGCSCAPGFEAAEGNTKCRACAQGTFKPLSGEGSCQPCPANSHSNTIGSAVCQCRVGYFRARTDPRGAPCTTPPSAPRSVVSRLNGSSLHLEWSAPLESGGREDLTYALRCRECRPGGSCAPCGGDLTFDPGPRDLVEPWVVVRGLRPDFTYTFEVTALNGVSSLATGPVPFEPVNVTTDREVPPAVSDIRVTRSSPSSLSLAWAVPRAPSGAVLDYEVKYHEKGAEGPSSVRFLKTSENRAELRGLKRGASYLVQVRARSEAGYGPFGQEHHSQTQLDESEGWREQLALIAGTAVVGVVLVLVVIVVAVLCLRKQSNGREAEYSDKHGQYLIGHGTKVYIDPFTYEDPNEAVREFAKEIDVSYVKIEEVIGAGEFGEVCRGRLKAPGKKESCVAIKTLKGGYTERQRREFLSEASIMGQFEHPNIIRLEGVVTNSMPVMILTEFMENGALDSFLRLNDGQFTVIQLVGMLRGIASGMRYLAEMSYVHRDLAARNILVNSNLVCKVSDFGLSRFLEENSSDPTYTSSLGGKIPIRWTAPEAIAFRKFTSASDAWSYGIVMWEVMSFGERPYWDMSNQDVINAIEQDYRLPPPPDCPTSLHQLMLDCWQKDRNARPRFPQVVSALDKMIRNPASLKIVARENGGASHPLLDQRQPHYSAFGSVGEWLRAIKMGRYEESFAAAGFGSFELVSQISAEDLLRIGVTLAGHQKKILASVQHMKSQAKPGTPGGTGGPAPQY

DDR2 = DDR2 (Homo sapiens (Human), UniProt Q16832); test: Kinase inhibition assay (KinaseProfiler, 33P-ATP); type: biochemical; conditions: DDR2(h); compound at 10 μM; read-out: The percentage of the remaining active protein
Sequence of DDR2 (Q16832 22-855): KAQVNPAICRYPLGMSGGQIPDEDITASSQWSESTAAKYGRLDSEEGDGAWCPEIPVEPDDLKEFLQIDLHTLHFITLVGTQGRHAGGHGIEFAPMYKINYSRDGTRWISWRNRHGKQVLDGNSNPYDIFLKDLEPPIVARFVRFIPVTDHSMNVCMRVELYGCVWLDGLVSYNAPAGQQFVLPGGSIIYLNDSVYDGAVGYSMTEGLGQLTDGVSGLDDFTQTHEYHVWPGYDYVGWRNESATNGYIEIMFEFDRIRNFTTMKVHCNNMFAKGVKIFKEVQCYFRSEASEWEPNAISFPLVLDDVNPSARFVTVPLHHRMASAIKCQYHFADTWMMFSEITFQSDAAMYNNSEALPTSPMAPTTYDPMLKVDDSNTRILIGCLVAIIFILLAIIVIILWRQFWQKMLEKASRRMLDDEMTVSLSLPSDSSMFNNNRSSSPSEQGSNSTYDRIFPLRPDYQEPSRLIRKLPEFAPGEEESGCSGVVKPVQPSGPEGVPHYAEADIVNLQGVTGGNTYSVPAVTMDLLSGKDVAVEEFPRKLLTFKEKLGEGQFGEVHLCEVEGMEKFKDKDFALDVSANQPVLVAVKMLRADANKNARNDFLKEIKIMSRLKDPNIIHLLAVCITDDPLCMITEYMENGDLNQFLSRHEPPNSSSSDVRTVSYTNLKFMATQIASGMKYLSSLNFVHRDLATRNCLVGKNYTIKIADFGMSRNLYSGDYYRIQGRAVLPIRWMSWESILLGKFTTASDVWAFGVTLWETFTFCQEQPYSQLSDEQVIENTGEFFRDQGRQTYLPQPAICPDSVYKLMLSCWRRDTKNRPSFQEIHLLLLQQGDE

TrkA = TrkA (Homo sapiens (Human), UniProt P04629); test: Kinase inhibition assay (KinaseProfiler, 33P-ATP); type: biochemical; conditions: for IC50: TrkA, ATP at Km
Sequence of TrkA (P04629 33-796): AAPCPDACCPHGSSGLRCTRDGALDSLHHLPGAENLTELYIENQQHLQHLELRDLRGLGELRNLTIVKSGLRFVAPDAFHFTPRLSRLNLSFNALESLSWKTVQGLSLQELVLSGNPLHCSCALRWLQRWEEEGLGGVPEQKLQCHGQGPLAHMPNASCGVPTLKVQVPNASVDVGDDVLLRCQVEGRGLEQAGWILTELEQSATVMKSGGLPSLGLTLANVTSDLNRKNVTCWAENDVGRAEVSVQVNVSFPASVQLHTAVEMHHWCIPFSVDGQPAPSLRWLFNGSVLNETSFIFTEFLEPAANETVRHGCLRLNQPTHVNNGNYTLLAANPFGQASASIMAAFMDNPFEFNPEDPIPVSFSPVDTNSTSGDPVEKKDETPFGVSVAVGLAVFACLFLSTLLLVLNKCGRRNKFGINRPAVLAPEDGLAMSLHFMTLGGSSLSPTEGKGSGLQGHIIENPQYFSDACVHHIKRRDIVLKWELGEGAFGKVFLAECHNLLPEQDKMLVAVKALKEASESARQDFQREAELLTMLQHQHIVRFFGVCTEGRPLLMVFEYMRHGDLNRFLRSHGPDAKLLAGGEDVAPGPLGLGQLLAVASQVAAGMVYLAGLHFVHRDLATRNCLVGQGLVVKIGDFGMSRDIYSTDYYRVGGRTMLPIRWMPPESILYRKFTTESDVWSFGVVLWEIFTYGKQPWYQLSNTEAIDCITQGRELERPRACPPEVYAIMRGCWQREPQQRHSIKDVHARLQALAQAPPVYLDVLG

Hck = Hck (Homo sapiens (Human), UniProt P08631); test: Kinase inhibition assay (KinaseProfiler, 33P-ATP); type: biochemical; conditions: Hck(h); compound at 10 μM; read-out: The percentage of the remaining active protein
Lyn = Lyn (Homo sapiens (Human), UniProt P07948); test: Kinase inhibition assay (KinaseProfiler, 33P-ATP); type: biochemical; conditions: Lyn(h); compound at 10 μM; read-out: The percentage of the remaining active protein
Ret = Ret (Homo sapiens (Human), UniProt P07949); test: Kinase inhibition assay (KinaseProfiler, 33P-ATP); type: biochemical; conditions: Ret(h); compound at 10 μM; read-out: The percentage of the remaining active protein
cKit(h) = cKit(h) (Homo sapiens (Human), UniProt P10721); test: Kinase inhibition assay (KinaseProfiler, 33P-ATP); type: biochemical; conditions: compound at 10 μM, read-out: The percentage of the remaining active protein
cSRC(h) = cSRC(h) (Homo sapiens (Human), UniProt P12931); test: Kinase inhibition assay (KinaseProfiler, 33P-ATP); type: biochemical; conditions: compound at 10 μM, read-out: The percentage of the remaining active protein
Flt3(h) = Flt3(h) (Homo sapiens (Human), UniProt P36888); test: Kinase inhibition assay (KinaseProfiler, 33P-ATP); type: biochemical; conditions: compound at 10 μM, read-out: The percentage of the remaining active protein
Met(h) = Met(h) (Homo sapiens (Human), UniProt P08581); test: Kinase inhibition assay (KinaseProfiler, 33P-ATP); type: biochemical; conditions: compound at 10 μM, read-out: The percentage of the remaining active protein
mTOR(h) = mTOR(h) (Homo sapiens (Human), UniProt P42345); test: Kinase inhibition assay (KinaseProfiler, 33P-ATP); type: biochemical; conditions: compound at 10 μM, read-out: The percentage of the remaining active protein
ULK3(h) = ULK3(h) (Homo sapiens (Human), UniProt Q6PHR2); test: Kinase inhibition assay (KinaseProfiler, 33P-ATP); type: biochemical; conditions: compound at 10 μM, read-out: The percentage of the remaining active protein

Row | SMILES | IC50 (MDA-MB-231; MDA-MB-231, MTT, 72 hours) [nM] | IC50 (MDA-MB-435; MDA-MB-435, MTT, 72 hours) [nM] | IC50 (c-Src(1-530)) [nM] | other results
1 | CC(C)n1nc(C#Cc2cccc(C(=O)Nc3ccc(CN4CCN(C)CC4)c(C(F)(F)F)c3)c2)c2c(N)ncnc21 [Compound 11] | 500 to 1000 | < 100 | 10 | –
2 | Cc1ccc(C(=O)Nc2ccc(CN3CCN(C)CC3)cc2)cc1C#Cc1nn(C(C)C)c2ncnc(N)c12 [Compound 17] | 100 to 500 | > 1000 | 4 | –
3 | COCn1nc(C#Cc2cc(C(=O)Nc3ccc(CN4CCN(C)CC4)c(C(F)(F)F)c3)ccc2C)c2c(N)ncnc21 [Compound 19] | < 100 | < 100 | 8 | –
4 | CCn1nc(C#Cc2cc(C(=O)Nc3ccc(CN4CCN(C)CC4)c(C(F)(F)F)c3)ccc2OC)c2c(N)ncnc21 [Compound 24] | 100 to 500 | > 1000 | 59 | –
5 | CCn1nc(C#Cc2cc(C(=O)Nc3ccc(CN4CCN(C)CC4)c(C(F)(F)F)c3)ccc2O)c2c(N)ncnc21 [Compound 25] | > 1000 | > 1000 | 3190 | –
6 | CCn1nc(C#Cc2cc(C(=O)Nc3ccc(CN4CCN(C)CC4)c(C(F)(F)F)c3)ccc2Cl)c2c(N)ncnc21 [Compound 26] | < 100 | < 100 | 11 | –
7 | CCn1nc(C#Cc2cccc(C(=O)Nc3ccc(CN4CCN(C)CC4)c(C(F)(F)F)c3)c2)c2c(N)ncnc21 [Compound 29] | < 100 | < 100 | 5 | –
8 | Cc1ccc(C(=O)Nc2ccc(CN3CCN(C)CC3)c(C(F)(F)F)c2)cc1C#Cc1nn(C2CCNCC2)c2ncnc(N)c12 [Compound 120] | – | – | – | remaining activity at 10 µM (Abl(T315I)): -1%; remaining activity at 10 µM (Yes; Yes(h), compound at 10 μM, read-out: The percentage of the remaining active protein): 0%; IC50 (Yes): < 1 nM; remaining activity at 10 µM (Fyn): 1%; remaining activity at 10 µM (FGFR1): -1%; remaining activity at 10 µM (EphB4): -1%; IC50 (EphB4; EphB4, ATP at Km): 28 nM; remaining activity at 10 µM (DDR2): 3%; remaining activity at 10 µM (TrkA; TrkA(h), compound at 10 μM, read-out: The percentage of the remaining active protein): 0%; IC50 (TrkA): 91 nM; remaining activity at 10 µM (Hck): -2%; remaining activity at 10 µM (Lyn): -2%; remaining activity at 10 µM (Ret): -16%; remaining activity at 10 µM (cKit(h)): 18%; remaining activity at 10 µM (cSRC(h)): 0%; remaining activity at 10 µM (Flt3(h)): 0%; remaining activity at 10 µM (Met(h)): 81%; remaining activity at 10 µM (mTOR(h)): 96%; remaining activity at 10 µM (ULK3(h)): 1%
9 | C=CC(=O)N1CCC(n2nc(C#Cc3cc(C(=O)Nc4ccc(CN5CCN(C)CC5)c(C(F)(F)F)c4)ccc3C)c3c(N)ncnc32)CC1 [Compound 121, 3-((1-(1-acryloyloxy-4-yl)-4-amino-1H-pyrazolo [3,4-d]pyrimidin-3-yl)ethynyl)-4-methyl-N-(4-((4-methylpiperazin-1-yl)methyl)-3-(trifluoromethyl)phenyl) benzamide] | – | – | – | IC50 (Yes): 2 nM; remaining activity at 10 µM (Fyn): -1%; remaining activity at 10 µM (FGFR1): -1%; remaining activity at 10 µM (EphB4): 0%; remaining activity at 10 µM (DDR2): 4%; IC50 (TrkA): 52 nM; remaining activity at 10 µM (Hck): 1%; remaining activity at 10 µM (Lyn): 2%; remaining activity at 10 µM (Ret): -2%; remaining activity at 10 µM (cKit(h)): 59%; remaining activity at 10 µM (cSRC(h)): 0%; IC50 (MDA-MB-231; MDA-MB-231, 72 h): < 100 nM; IC50 (MDA-MB-435; MDA-MB-435, 72 h): < 100 nM

Continued, in another order:

Row | IC50 (MDA-MB-231; MDA-MB-231, MTT, 72 hours) [nM] | IC50 (MDA-MB-435; MDA-MB-435, MTT, 72 hours) [nM] | IC50 (c-Src(1-530)) [nM] | SMILES | other results
10 | > 1000 | > 1000 | 139 | Cc1cn(-c2cc(NC(=O)c3ccc(C)c(C#Cc4nn(C(C)C)c5ncnc(N)c45)c3)cc(C(F)(F)F)c2)cn1 [Compound 12] | –
11 | < 100 | 100 to 500 | 11 | Cc1ccc(C(=O)Nc2cc(CN3CCN(C)CC3)cc(C(F)(F)F)c2)cc1C#Cc1nn(C(C)C)c2ncnc(N)c12 [Compound 13] | –
12 | 100 to 500 | > 1000 | 3 | Cc1ccc(C(=O)Nc2cccc(C(F)(F)F)c2)cc1C#Cc1nn(C(C)C)c2ncnc(N)c12 [Compound 14] | –
13 | < 100 | < 100 | 7 | Cc1ccc(NC(=O)c2ccc(CN3CCN(C)CC3)c(C(F)(F)F)c2)cc1C#Cc1nn(C(C)C)c2ncnc(N)c12 [Compound 16] | –
14 | < 100 | 100 to 500 | 4 | Cc1ccc(NC(=O)c2cccc(C(F)(F)F)c2)cc1C#Cc1nn(C(C)C)c2ncnc(N)c12 [Compound 18] | –

Source: patent US10266537B2, “3-acetylenyl-pyrazole-pyrimidine derivative, and preparation method therefor and uses thereof” (Si Chuan University, priority 2015, dated 2019)
